Measurements published in PMC12449377, “Psychedelic-like effects induced by 2,5-dimethoxy-4-iodoamphetamine, lysergic acid diethylamide, and psilocybin in male and female C57BL/6J mice” (Psychopharmacology, 2025).
Where two headings read alike, the source gives them in different places.

How the values were obtained:
5-HT2A = target: T1, 5-HT2A (Mus musculus, UniProt P35363); assay: Competition binding vs [3H]M100907 in mouse brain membranes
T1 construct: tissue BioIVT; host or cells: whole C57BL/6 mouse brain minus cerebellum, male and female
Procedure: (§1) Competition binding studies were conducted in mouse brain tissue as previously described (Glatfelter et al. [2022b]). Briefly, the experiments utilized membranes prepared from whole C57BL/6 mouse brain minus cerebellum (BioIVT, Westbury, NY, USA). […] We assessed the ability of test drugs to compete for [^3H]M100907 binding at 5-HT2A (1 nM) or [^3H]8-OH-DPAT binding at 5-HT1A (0.5 nM). Radioligands were purchased commercially (PerkinElmer, Boston, MA, USA). Nonspecific binding was determined using 10 µM ketanserin for 5-HT2A and serotonin for 5-HT1A. All data represent 3 experiments performed in triplicate.
(§2) Concentration-response data were fit to a single site non-linear regression model. For the HTR studies, potencies were determined from the ascending limb of the dose-response curves using ED50 potency values from [agonist] vs. response (variable slope, four parameter) least squares fit non-linear regression analyses, whereas efficacy was defined by the top output parameter or Emax from the aforementioned analyses. […] Best-fit values for ED50 and Emax from non-linear regression analyses were compared by extra sum-of-squares F tests. Mean effects for each behavioral endpoint were compared using two-way ANOVA (dose x sex), followed by Sidak’s multiple comparisons post-hoc test. Mean effects for pooled mouse behavioral data were compared via Welch’s ANOVA with Dunnett’s T3 post-hoc test, comparing all doses to saline vehicle controls (0 mg/kg). Alpha was set to 0.05 for all analyses.

5-HT1A = target: T2, 5-HT1A (Mus musculus, UniProt Q64264); assay: Competition binding vs [3H]8-OH-DPAT in mouse brain membranes
T2 construct: tissue BioIVT; host or cells: whole C57BL/6 mouse brain minus cerebellum, male and female
T2 sequence (Q64264 1-421): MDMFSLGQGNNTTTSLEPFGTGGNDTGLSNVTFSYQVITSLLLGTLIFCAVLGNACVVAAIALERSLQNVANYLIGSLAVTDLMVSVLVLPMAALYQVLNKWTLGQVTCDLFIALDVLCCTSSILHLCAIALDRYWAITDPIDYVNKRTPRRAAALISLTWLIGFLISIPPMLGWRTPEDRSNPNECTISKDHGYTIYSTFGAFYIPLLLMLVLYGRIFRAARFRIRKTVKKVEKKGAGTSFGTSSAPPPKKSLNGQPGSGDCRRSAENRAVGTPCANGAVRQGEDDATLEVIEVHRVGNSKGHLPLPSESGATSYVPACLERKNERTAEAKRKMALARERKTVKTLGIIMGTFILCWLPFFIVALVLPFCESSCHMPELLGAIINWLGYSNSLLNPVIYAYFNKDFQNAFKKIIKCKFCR
Procedure: as §1, §2

C57BL/6J mice [1] = assay: Head twitch response (HTR) in mice; type: in vivo, mouse; details: for HTR (total events) Mean: 30 min; for ED50: Mus musculus, sc
Procedure: Each drug was tested using groups of 12 mice per sex (i.e., 24 total mice per drug). Experimental sessions were conducted once every 1–2 weeks for 2 months per drug. Experimental sessions were spaced apart by at least 1 week to minimize the potential for tolerance to drug effects (Canal and Morgan [2012]; Darmani et al. [1990a]; de la Fuente Revenga et al. [2022]). Experiments were conducted during the light phase (1300–1700 local time; lights on = 0700 in a 12/12 light/dark cycle).
(§3) At 1–2 weeks prior to the beginning of experiments, mice were habituated to handling and receiving s.c. saline injections. On the day of an experiment, mice were acclimated to the testing room in their home cage for at least 30 min prior to the start of sessions. Prior to each session, mice were weighed, and resting body temperatures were recorded. Mice were then placed into experimental chambers for acclimation. Behavioral testing was carried out in TruScan mouse locomotor arenas equipped with photobeam arrays (Coulbourn Instruments, Holliston, MA, USA) that were modified with cylindrical inserts and transparent flooring to aid in semi-automated HTR detection as previously described (Glatfelter et al. [2022a]). After 5 min of acclimation, basal body temperature was recorded followed by s.c. injection of drug or vehicle, and mice were returned to test chambers for 30 min. Dose ranges for each drug were 0.03–10 mg/kg for DOI, 0.03–10 mg/kg for psilocybin, and 0.003–1 mg/kg for LSD. Mice were randomly assigned to specific doses at the beginning of the experiment and received different doses at each session.
(§4) During each session, locomotor activity was quantified via photobeam tracking of distance traveled in cm. Overhead GoPro Hero Black 7 video recordings (120 fps, 960p resolution) were analyzed using a commercially available software package from Clever Sys Inc. (Reston, VA, USA) for the measurement of HTR activity. Mouse body temperature was also collected post-session to calculate temperature change values (basal - post session temperature reading).
as §2

C57BL/6J mice [2] = assay: Locomotor activity (distance traveled) in mice; type: in vivo, mouse; details: for Locomotor Activity (cm) Mean: 30 min
Procedure: as §3, §4, §2

T1 sequence (P35363 whole entry): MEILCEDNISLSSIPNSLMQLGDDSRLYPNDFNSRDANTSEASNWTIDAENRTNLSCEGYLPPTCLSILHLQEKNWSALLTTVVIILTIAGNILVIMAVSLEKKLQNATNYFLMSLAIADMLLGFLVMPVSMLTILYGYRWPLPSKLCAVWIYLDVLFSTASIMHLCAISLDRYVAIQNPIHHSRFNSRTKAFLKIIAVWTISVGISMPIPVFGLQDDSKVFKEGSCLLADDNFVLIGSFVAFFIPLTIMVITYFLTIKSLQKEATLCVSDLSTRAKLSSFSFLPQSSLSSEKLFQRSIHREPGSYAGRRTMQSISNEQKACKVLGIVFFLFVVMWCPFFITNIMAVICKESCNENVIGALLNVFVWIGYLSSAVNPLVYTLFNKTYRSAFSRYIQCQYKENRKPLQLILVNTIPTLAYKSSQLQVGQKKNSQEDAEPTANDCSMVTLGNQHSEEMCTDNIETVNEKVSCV

## CCN(CC)C(=O)[C@@H]1C=C2c3cccc4[nH]cc(c34)C[C@H]2N(C)C1 [LSD, lysergic acid diethylamide]
5-HT2A; 5-HT2A binding affinity (Ki), males and females, male and female mouse brain membranes, summary statement
  Ki: 1 to 100 nM
5-HT2A; [3H]M100907 Binding ♀ m5-HT2A Ki, female mouse brain membranes
  Ki: 1.9 nM
5-HT2A; [3H]M100907 Binding ♂ m5-HT2A Ki, male mouse brain membranes
  Ki: 2.3 nM
5-HT1A; 5-HT1A binding affinity (Ki), males and females, male and female mouse brain membranes, summary statement
  Ki: 1 to 100 nM
5-HT1A; [3H]8-OH-DPAT Binding ♀ m5-HT1A Ki, female mouse brain membranes
  Ki: 0.95 nM
5-HT1A; [3H]8-OH-DPAT Binding ♂ m5-HT1A Ki, male mouse brain membranes
  Ki: 1.02 nM
C57BL/6J mice [1]; 0.003 mg/kg s.c., female mice
  HTR (total events) Mean: 6.5 total events
C57BL/6J mice [1]; 0.003 mg/kg s.c., male mice
  HTR (total events) Mean: 6.3 total events
C57BL/6J mice [1]; 0.003 mg/kg s.c., pooled sexes
  HTR (total events) Mean: 6.4 total events
C57BL/6J mice [1]; 0.01 mg/kg s.c., female mice
  HTR (total events) Mean: 10.7 total events
C57BL/6J mice [1]; 0.01 mg/kg s.c., male mice
  HTR (total events) Mean: 13.5 total events
C57BL/6J mice [1]; 0.01 mg/kg s.c., pooled sexes
  HTR (total events) Mean: 12.1 total events
C57BL/6J mice [1]; 0.03 mg/kg s.c., female mice
  HTR (total events) Mean: 24.2 total events
C57BL/6J mice [1]; 0.03 mg/kg s.c., male mice
  HTR (total events) Mean: 29.7 total events
C57BL/6J mice [1]; 0.03 mg/kg s.c., pooled sexes
  HTR (total events) Mean: 27.2 total events
C57BL/6J mice [1]; 0.1 mg/kg s.c., female mice
  HTR (total events) Mean: 43.5 total events
C57BL/6J mice [1]; 0.1 mg/kg s.c., male mice
  HTR (total events) Mean: 43.7 total events
C57BL/6J mice [1]; 0.1 mg/kg s.c., pooled sexes
  HTR (total events) Mean: 43.6 total events
C57BL/6J mice [1]; 0.3 mg/kg s.c., female mice
  HTR (total events) Mean: 55.8 total events
C57BL/6J mice [1]; 0.3 mg/kg s.c., male mice
  HTR (total events) Mean: 45.0 total events
C57BL/6J mice [1]; 0.3 mg/kg s.c., pooled sexes
  HTR (total events) Mean: 50.4 total events
C57BL/6J mice [1]; 1 mg/kg s.c., female mice
  HTR (total events) Mean: 38.0 total events
C57BL/6J mice [1]; 1 mg/kg s.c., male mice
  HTR (total events) Mean: 26.2 total events
C57BL/6J mice [1]; 1 mg/kg s.c., pooled sexes
  HTR (total events) Mean: 32.1 total events
C57BL/6J mice [1]; female mice, ascending limb of dose-response curve, read-out: HTR ♀ ED50 (95% CI)
  ED50: 0.051 mg/kg
C57BL/6J mice [1]; male mice, ascending limb of dose-response curve, read-out: HTR ♂ ED50 (95% CI)
  ED50: 0.024 mg/kg
C57BL/6J mice [1]; pooled male and female mice, read-out: HTR ♂+♀ ED50 (95% CI)
  ED50: 0.035 mg/kg
C57BL/6J mice [1]; peak/active doses, 30 min session
  Duration of HTR effect in the session: trended to baseline levels by the end of the testing session
C57BL/6J mice [1]; s.c., both sexes, 30 min session
  Time of peak effects on HTR post drug administration: 5 to 10 min
C57BL/6J mice [1]; s.c., female mice, top of regression fit
  HTR ♀ Emax (95% CI): 58 (50–68) HTR events
C57BL/6J mice [1]; s.c., male mice, top of regression fit
  HTR ♂ Emax (95% CI): 46 (44–50) HTR events
C57BL/6J mice [1]; s.c., pooled male and female mice
  HTR ♂+♀ Emax (95% CI): 51 (46–60) HTR events
C57BL/6J mice [2]; 0.003 mg/kg s.c., female mice
  Locomotor Activity (cm) Mean: 2499.8 cm
C57BL/6J mice [2]; 0.003 mg/kg s.c., male mice
  Locomotor Activity (cm) Mean: 2549.1 cm
C57BL/6J mice [2]; 0.003 mg/kg s.c., pooled sexes
  Locomotor Activity (cm) Mean: 2526 cm
C57BL/6J mice [2]; 0.01 mg/kg s.c., female mice
  Locomotor Activity (cm) Mean: 2581.2 cm
C57BL/6J mice [2]; 0.01 mg/kg s.c., male mice
  Locomotor Activity (cm) Mean: 2649.3 cm
C57BL/6J mice [2]; 0.01 mg/kg s.c., pooled sexes
  Locomotor Activity (cm) Mean: 2615 cm
C57BL/6J mice [2]; 0.03 mg/kg s.c., female mice
  Locomotor Activity (cm) Mean: 2977.4 cm
C57BL/6J mice [2]; 0.03 mg/kg s.c., male mice
  Locomotor Activity (cm) Mean: 2756.4 cm
C57BL/6J mice [2]; 0.03 mg/kg s.c., pooled sexes
  Locomotor Activity (cm) Mean: 2867 cm
C57BL/6J mice [2]; 0.1 mg/kg s.c., female mice
  Locomotor Activity (cm) Mean: 2290.0 cm
C57BL/6J mice [2]; 0.1 mg/kg s.c., male mice
  Locomotor Activity (cm) Mean: 2650.0 cm
C57BL/6J mice [2]; 0.1 mg/kg s.c., pooled sexes
  Locomotor Activity (cm) Mean: 2456 cm
C57BL/6J mice [2]; 0.3 mg/kg s.c., female mice
  Locomotor Activity (cm) Mean: 2309.5 cm
C57BL/6J mice [2]; 0.3 mg/kg s.c., male mice
  Locomotor Activity (cm) Mean: 2123.8 cm
C57BL/6J mice [2]; 0.3 mg/kg s.c., pooled sexes
  Locomotor Activity (cm) Mean: 2217 cm
C57BL/6J mice [2]; 1 mg/kg s.c.
  Locomotor activity effect: decreased locomotion
C57BL/6J mice [2]; 1 mg/kg s.c., female mice
  Locomotor Activity (cm) Mean: 2029.2 cm
C57BL/6J mice [2]; 1 mg/kg s.c., male mice
  Locomotor Activity (cm) Mean: 1571.6 cm
C57BL/6J mice [2]; 1 mg/kg s.c., pooled sexes
  Locomotor Activity (cm) Mean: 1800 cm
